Experimental data from patent US20230143612A1 (Arbutus Biopharma Corporation, priority 2020, published 2023).

Target: PD-L1 His protein / PD-1 Fc protein (Homo sapiens, UniProt Q9NZQ7)
Test: HTRF Assay (PD-1/PD-L1 interaction)
Format: binding
Conditions: PD-L1 His 6 nM, PD-1 Fc 6 nM
Procedure, shortened: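 HTRF: PD-L1 His (6 nM final), compound (3-fold dilutions, 20 μM to 0.001 μM final) and PD-1 Fc (6 nM final) preincubated 15 min at room temperature. Anti-human IgG-XL665 and anti-6HIS Tb cryptate (mixed at 6.7 nM and 0.35 nM) then added for 1 h at room temperature before reading.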

Chain of PD-L1 His protein / PD-1 Fc protein (Q9NZQ7 19-238 limits assumed): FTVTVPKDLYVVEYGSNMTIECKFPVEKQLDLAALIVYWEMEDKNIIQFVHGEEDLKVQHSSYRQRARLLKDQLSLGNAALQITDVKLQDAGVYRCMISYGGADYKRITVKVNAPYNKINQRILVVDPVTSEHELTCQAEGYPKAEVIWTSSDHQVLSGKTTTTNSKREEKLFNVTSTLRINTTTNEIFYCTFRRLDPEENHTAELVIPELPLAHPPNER

Question: For COc1nc(-c2cc(F)cc(-c3cccc(-c4ccn5c(=O)c(CNC[C@@H]6CCC(=O)N6)cnc5c4)c3Cl)c2Cl)ccc1CNC[C@@H]1CCC(=O)N1 [Example 86, 8-(2,2′-Dichloro-5′-fluoro-3′-(6-methoxy-5-(((((S)-5-oxopyrrolidin-2-yl)methyl)amino)methyl)pyridin-2-yl)-[1,1′-biphenyl]-3-yl)-3-(((((S)-5-oxopyrrolidin-2-yl)methyl)amino)methyl)-4H-pyrido[1,2-a]pyrimidin-4-one], which IC50 is on record?
Answer: 4.1 nM

Question: Which IC50 does the source give for COc1nc(/C=C2\CCc3c2cccc3-c2cccc(-c3ccn4c(=O)c(CNC[C@@H]5CCC(=O)N5)cnc4c3)c2Cl)c(Cl)cc1CNC[C@@H]1CCC(=O)N1 [Example 177, 8-(2-Chloro-3-((E)-1-((3-chloro-6-methoxy-5-(((((S)-5-oxopyrrolidin-2-yl)methyl)amino)methyl)pyridin-2-yl)methylene)-2,3-dihydro-1H-inden-4-yl)phenyl)-3-(((((S)-5-oxopyrrolidin-2-yl)methyl)amino)methyl)-4H-pyrido[1,2-a]pyrimidin-4-one] here?
Answer: 5 nM

Question: COC(=O)C1CN(Cc2cc(=O)n3ccc(-c4cccc(-c5cccc(-c6ccc(CNC[C@@H]7CCC(=O)N7)c(OC)n6)c5Cl)c4Cl)cc3n2)C1 [Example 343, (S)-Methyl 1-((8-(2,2′-dichloro-3′-(6-methoxy-5-((((5-oxopyrrolidin-2-yl)methyl)amino)methyl)pyridin-2-yl)-[1,1′-biphenyl]-3-yl)-4-oxo-4H-pyrido[1,2-a]pyrimidin-2-yl)methyl) azetidine-3-carboxylate] was tested. Which IC50 did it give?
Answer: 0.1 nM

Question: Which IC50 does the source give for COc1nc(-c2cccc(-c3cccc(-c4ccc5nc(C(=O)NC[C@H](C)N)cn5n4)c3Cl)c2Cl)ccc1CNC[C@@H]1CCC(=O)N1 [Example 439, N-[(2S)-2-Aminopropyl]-6-[2-chloro-3-[2-chloro-3-[6-methoxy-5-[[[(2S)-5-oxopyrrolidin-2-yl]methylamino]methyl]-2-pyridyl]phenyl]phenyl]imidazo[1,2-b]pyridazine-2-carboxamide] here?
Answer: 20 nM

Question: COc1nc(-c2cccc(-c3cccc(-c4ccn5c(=O)c(CNCC(F)F)cnc5c4)c3Cl)c2Cl)ccc1CNC[C@@H]1CCC(=O)N1 [Example 297, 8-[2-Chloro-3-[2-chloro-3-[6-methoxy-5-[[[(2S)-5-oxopyrrolidin-2-yl]methylamino]methyl]-2-pyridyl]phenyl]phenyl]-3-[(2,2-difluoroethylamino)methyl]pyrido[1,2-a]pyrimidin-4-one] was tested. Which IC50 did it give?
Answer: 320 nM

Question: How did the IC50 turn out when COc1nc(-c2cccc(-c3cccc(-c4ccn5c(=O)c(CN[C@H]6C[C@](C)(O)C6)c(C)nc5c4)c3Cl)c2Cl)ccc1CNC[C@@H]1CCC(=O)N1 [Example 204, 8-(2,2′-Dichloro-3′-(6-methoxy-5-(((((S)-5-oxopyrrolidin-2-yl)methyl)amino)methyl)pyridin-2-yl)-[1,1′-biphenyl]-3-yl)-3-((((1r,3r)-3-hydroxy-3-methylcyclobutyl)amino)methyl)-2-methyl-4H-pyrido[1,2-a]pyrimidin-4-one] was run?
Answer: 0.1 nM

Question: COc1nc(-c2cccc(-c3cccc(-c4ccn5c(=O)c(CNC[C@@H]6CCC(=O)N6)cnc5c4)c3Cl)c2Cl)cc(Cl)c1CNC[C@@H]1CCC(=O)N1 [Example 335, 8-[2-Chloro-3-[2-chloro-3-[4-chloro-6-methoxy-5-[[[(2S)-5-oxopyrrolidin-2-yl]methylamino]methyl]-2-pyridyl]phenyl]phenyl]-3-[[[(2S)-5-oxopyrrolidin-2-yl]methylamino]methyl]pyrido[1,2-a]pyrimidin-4-one] was tested. Which IC50 did it give?
Answer: 2.1 nM

Question: How did the IC50 turn out when COc1cc2c(cc1CNC[C@@H]1CCC(=O)N1)CCC2=Cc1cccc(-c2cccc(-c3ccc(CNC[C@@H]4CCC(=O)N4)c(OC)n3)c2Cl)c1Cl [Example 228, (S)-5-((((6-(2,2′-Dichloro-3′-((6-methoxy-5-(((((S)-5-oxopyrrolidin-2-yl)methyl)amino)methyl)-2,3-dihydro-1H-inden-1-ylidene)methyl)-[1,1′-biphenyl]-3-yl)-2-methoxypyridin-3-yl)methyl)amino)methyl)pyrrolidin-2-one] was run?
Answer: 3200 nM

Question: For Cc1c(-c2ccn3c(=O)c(CNC[C@@H]4CCC(=O)N4)cnc3c2)cccc1-c1cccc(-c2ccc(CNC[C@@H]3CCC(=O)N3)c(C(F)(F)F)n2)c1Cl [Example 78, 8-(2′-Chloro-2-methyl-3′-(5-(((((S)-5-oxopyrrolidin-2-yl)methyl)amino)methyl)-6-(trifluoromethyl)pyridin-2-yl)-[1,1′-biphenyl]-3-yl)-3-(((((S)-5-oxopyrrolidin-2-yl)methyl)amino)methyl)-4H-pyrido[1,2-a]pyrimidin-4-one], which IC50 is on record?
Answer: 16 nM

Question: With COc1cc(-c2cccc(-c3cccc(-c4ccn5c(=O)c(CNC[C@@H]6CCC(=O)N6)cnc5c4)c3Cl)c2Cl)c(F)cc1CNC[C@@H]1CCC(=O)N1 [Example 106, 8-(2,2′-Dichloro-2″-fluoro-5″-methoxy-4″-(((((S)-5-oxopyrrolidin-2-yl)methyl)amino)methyl)-[1,1′:3′,1″-terphenyl]-3-yl)-3-(((((S)-5-oxopyrrolidin-2-yl)methyl)amino)methyl)-4H-pyrido[1,2-a]pyrimidin-4-one] as the molecule, how does the IC50 read?
Answer: 4.9 nM

Question: With COc1nc(-c2cccc(-c3cccc(-c4ccc5c(c4)CCCNC5)c3Cl)c2Cl)ccc1CNC[C@@H]1CCC(=O)N1 [Example 344, (S)-5-((((6-(2,2′-Dichloro-3′-(2,3,4,5-tetrahydro-1H-benzo[c]azepin-7-yl)-[1,1′-biphenyl]-3-yl)-2-methoxypyridin-3-yl)methyl)amino)methyl)pyrrolidin-2-one] as the molecule, how does the IC50 read?
Answer: 570 nM

Question: With COc1nc(-c2cccc(-c3cccc(-c4ccn5c(=O)c(CNC[C@H](C)O)c(C)nc5c4)c3Cl)c2Cl)ccc1CNC[C@H](C)O [Example 181, 8-(2,2′-Dichloro-3′-(5-((((S)-2-hydroxypropyl)amino)methyl)-6-methoxypyridin-2-yl)-[1,1′-biphenyl]-3-yl)-3-((((S)-2-hydroxypropyl)amino)methyl)-2-methyl-4H-pyrido[1,2-a]pyrimidin-4-one] as the molecule, how does the IC50 read?
Answer: 3.8 nM

Question: Which IC50 does the source give for COc1nc(-c2cccc(-c3cccc(-c4ccn5c(=O)c(CN6CCC[C@H](C(=O)O)C6)cnc5c4)c3Cl)c2Cl)ccc1CNC[C@@H]1CCC(=O)N1 [Example 130, (S)-1-((8-(2,2′-Dichloro-3′-(6-methoxy-5-(((((S)-5-oxopyrrolidin-2-yl)methyl)amino)methyl)pyridin-2-yl)-[1,1′-biphenyl]-3-yl)-4-oxo-4H-pyrido[1,2-a]pyrimidin-3-yl)methyl)piperidine-3-carboxylic acid] here?
Answer: 0.3 nM

Question: Which IC50 does the source give for COc1nc(-c2cccc(-c3cccc(-c4ccn5c(=O)c(C)c(CNC[C@@H]6CCC(=O)N6)nc5c4)c3Cl)c2Cl)ccc1CNC[C@@H]1CCC(=O)N1 [Example 372, 8-(2,2′-Dichloro-3′-(6-methoxy-5-(((((S)-5-oxopyrrolidin-2-yl)methyl)amino)methyl)pyridin-2-yl)-[1,1′-biphenyl]-3-yl)-3-methyl-2-(((((S)-5-oxopyrrolidin-2-yl)methyl)amino)methyl)-4H-pyrido[1,2-a]pyrimidin-4-one] here?
Answer: 60 nM

Question: Which IC50 does the source give for COc1nc(-c2cccc(-c3cccc(-c4ccn5c(=O)c(CNC[C@@H]6CCC(=O)N6)cnc5c4)c3Cl)c2Cl)ccc1CNC1(C(=O)O)CC1 [Example 115, (S)-1-(((6-(2,2′-Dichloro-3′-(4-oxo-3-((((5-oxopyrrolidin-2-yl)methyl)amino)methyl)-4H-pyrido[1,2-a]pyrimidin-8-yl)-[1,1′-biphenyl]-3-yl)-2-methoxypyridin-3-yl)methyl)amino)cyclopropane-1-carboxylic acid] here?
Answer: 2.5 nM

Question: How did the IC50 turn out when Cc1c(-c2ccn3c(=O)c(CNC[C@@H]4CCC(=O)N4)cnc3c2)cccc1-c1cccc(-c2ccc3c(c2)CCC3NC[C@@H]2CCC(=O)N2)c1Cl (stereo partly drawn) [Example 76, 8-(2′-Chloro-2-methyl-3′-(1-((((S)-5-oxopyrrolidin-2-yl)methyl)amino)-2,3-dihydro-1H-inden-5-yl)-[1,1′-biphenyl]-3-yl)-3-(((((S)-5-oxopyrrolidin-2-yl)methyl)amino)methyl)-4H-pyrido[1,2-a]pyrimidin-4-one] was run?
Answer: 3.4 nM

Question: Which IC50 does the source give for COc1nc(-c2cccc(-c3cccc(-c4ccc5nc(CNC[C@@H](O)CC(=O)N(C)C)cn5n4)c3Cl)c2Cl)ccc1CNC[C@@H]1CCC(=O)N1 [Example 355, (3S)-4-[[6-[2-Chloro-3-[2-chloro-3-[6-methoxy-5-[[[(2S)-5-oxopyrrolidin-2-yl]methylamino]methyl]-2-pyridyl]phenyl]phenyl]imidazo[1,2-b]pyridazin-2-yl]methylamino]-3-hydroxy-N,N-dimethyl-butanamide] here?
Answer: 0.1 nM

Question: Which IC50 does the source give for COc1nc(-c2cccc(-c3cccc(-c4cc5c(=O)n(C)c(CN[C@H]6CC[C@H](O)CC6)nn5c4)c3Cl)c2Cl)ccc1CNC[C@@H]1CCC(=O)N1 [Example 486, 6-[2-Chloro-3-[2-chloro-3-[6-methoxy-5-[[[(2S)-5-oxopyrrolidin-2-yl]methylamino]methyl]-2-pyridyl]phenyl]phenyl]-2-[[(4-hydroxycyclohexyl)amino]methyl]-3-methyl-pyrrolo[2,1-f][1,2,4]triazin-4-one] here?
Answer: 0.4 nM

Question: How did the IC50 turn out when COc1nc(-c2cccc(-c3cccc(-c4cc5c(=O)n(C)c(CNC[C@H](C)O)nn5c4)c3Cl)c2Cl)ccc1CNC[C@@H]1CCC(=O)N1 [Example 350, 6-(2,2′-Dichloro-3′-(6-methoxy-5-(((((S)-5-oxopyrrolidin-2-yl)methyl)amino)methyl)pyridin-2-yl)-[1,1′-biphenyl]-3-yl)-2-((((S)-2-hydroxypropyl)amino)methyl)-3-methylpyrrolo[2,1-f][1,2,4]triazin-4(3H)-one] was run?
Answer: 0.1 nM

Question: For COc1nc(-c2cccc(-c3cccc(-c4ccn5c(=O)c(CN6CC(C(=O)O)C6)cnc5c4)c3Cl)c2Cl)cnc1CN1CC(CO)C1 [Example 93, 1-((8-(2,2′-Dichloro-3′-(5-((3-(hydroxymethyl)azetidin-1-yl)methyl)-6-methoxypyrazin-2-yl)-[1,1′-biphenyl]-3-yl)-4-oxo-4H-pyrido[1,2-a]pyrimidin-3-yl)methyl)azetidine-3-carboxylic acid], which IC50 is on record?
Answer: 0.3 nM
